Laboratory results taken from the NIST ThermoML archive (doi:10.1016/j.fluid.2016.06.011).
Numbers after ± are expanded uncertainties.

Conditions: Liquid; for vapor or sublimation pressure: Closed cell (Static) method; for mass density: 101.33 kPa, Vibrating tube method

OCC(F)(F)C(F)(F)C(F)(F)F [2,2,3,3,4,4,4-heptafluorobutanol]
Conditions	mass density [kg/m3]	vapor or sublimation pressure [kPa]
278.14 K	–	0.7213 ± 0.013
278.15 K	1633.59 ± 2.4	–
279.15 K	1631.74 ± 2.4	–
280.15 K	1629.87 ± 2.4	–
281.15 K	1627.99 ± 2.4	–
282.15 K	1626.11 ± 2.4	–
283.1 K	–	1.047 ± 0.015
283.15 K	1624.23 ± 2.4	–
284.15 K	1622.34 ± 2.4	–
285.15 K	1620.44 ± 2.4	–
286.15 K	1618.54 ± 2.4	–
287.15 K	1616.63 ± 2.4	–
288.08 K	–	1.495 ± 0.018
288.15 K	1614.73 ± 2.4	–
289.15 K	1612.81 ± 2.4	–
290.15 K	1610.89 ± 2.4	–
291.15 K	1608.97 ± 2.4	–
292.15 K	1607.04 ± 2.4	–
293.08 K	–	2.117 ± 0.021
293.15 K	1605.11 ± 2.4	–
294.15 K	1603.16 ± 2.3	–
295.15 K	1601.22 ± 2.3	–
296.15 K	1599.26 ± 2.3	–
297.15 K	1597.31 ± 2.3	–
298.1 K	–	2.965 ± 0.025
298.15 K	1595.34 ± 2.3	–
299.15 K	1593.37 ± 2.3	–
300.15 K	1591.39 ± 2.3	–
301.15 K	1589.41 ± 2.3	–
302.15 K	1587.41 ± 2.3	–
303.07 K	–	4.086 ± 0.032
303.15 K	1585.41 ± 2.3	–
304.15 K	1583.41 ± 2.3	–
305.15 K	1581.4 ± 2.3	–
306.15 K	1579.38 ± 2.3	–
307.15 K	1577.36 ± 2.3	–
308.04 K	–	5.551 ± 0.04
308.15 K	1575.32 ± 2.3	–
309.14 K	1573.28 ± 2.3	–
310.15 K	1571.23 ± 2.3	–
311.15 K	1569.18 ± 2.2	–
312.15 K	1567.12 ± 2.2	–
313.03 K	–	7.473 ± 0.051
313.14 K	1565.05 ± 2.2	–
314.15 K	1562.97 ± 2.2	–
315.15 K	1560.89 ± 2.2	–
316.15 K	1558.79 ± 2.2	–
317.15 K	1556.69 ± 2.2	–
317.98 K	–	9.905 ± 0.065
318.15 K	1554.58 ± 2.2	–
319.14 K	1552.46 ± 2.2	–
320.15 K	1550.34 ± 2.2	–
321.15 K	1548.2 ± 2.2	–
322.14 K	1546.06 ± 2.2	–
322.95 K	–	13.14 ± 0.084
323.14 K	1543.91 ± 2.2	–
324.14 K	1541.75 ± 2.2	–
325.15 K	1539.58 ± 2.2	–
326.14 K	1537.4 ± 2.2	–
327.14 K	1535.21 ± 2.1	–
327.91 K	–	17.26 ± 0.096
328.15 K	1533.02 ± 2.1	–
329.15 K	1530.81 ± 2.1	–
330.14 K	1528.6 ± 2.1	–
331.14 K	1526.38 ± 2.1	–
332.15 K	1524.14 ± 2.1	–
333.14 K	1521.91 ± 2.1	–
334.14 K	1519.66 ± 2.1	–
335.14 K	1517.4 ± 2.1	–
336.14 K	1515.13 ± 2.1	–
337.14 K	1512.85 ± 2.1	–
338.14 K	1510.57 ± 2.1	–
339.14 K	1508.28 ± 2.1	–
340.14 K	1505.97 ± 2.1	–
341.14 K	1503.65 ± 2.1	–
342.14 K	1501.33 ± 2	–
343.14 K	1498.99 ± 2	–
344.15 K	1496.65 ± 2	–
345.15 K	1494.29 ± 2	–
346.15 K	1491.93 ± 2	–
347.15 K	1489.55 ± 2	–
348.14 K	1487.16 ± 2	–
349.14 K	1484.77 ± 2	–
350.14 K	1482.37 ± 2	–
351.14 K	1479.94 ± 2	–
352.14 K	1477.52 ± 2	–
353.14 K	1475.08 ± 2	–

OCC(F)(F)C(F)(F)C(F)(F)C(F)(F)F [2,2,3,3,4,4,5,5,5-nonafluoropentan-1-ol]
Conditions	mass density [kg/m3]	vapor or sublimation pressure [kPa]
278.14 K	–	0.2236 ± 0.011
278.15 K	1689.58 ± 5.6	–
279.15 K	1687.71 ± 5.6	–
280.15 K	1685.83 ± 5.6	–
281.15 K	1683.95 ± 5.6	–
282.15 K	1682.07 ± 5.5	–
283.1 K	–	0.3363 ± 0.011
283.15 K	1680.18 ± 5.5	–
284.15 K	1678.29 ± 5.5	–
285.15 K	1676.39 ± 5.5	–
286.15 K	1674.48 ± 5.5	–
287.15 K	1672.58 ± 5.5	–
288.07 K	–	0.502 ± 0.012
288.15 K	1670.67 ± 5.5	–
289.15 K	1668.76 ± 5.5	–
290.15 K	1666.84 ± 5.4	–
291.15 K	1664.91 ± 5.4	–
292.15 K	1662.98 ± 5.4	–
293.06 K	–	0.7329 ± 0.013
293.15 K	1661.05 ± 5.4	–
294.15 K	1659.11 ± 5.4	–
295.15 K	1657.16 ± 5.4	–
296.15 K	1655.22 ± 5.4	–
297.15 K	1653.26 ± 5.4	–
298.09 K	–	1.07 ± 0.016
298.15 K	1651.3 ± 5.3	–
299.15 K	1649.34 ± 5.3	–
300.15 K	1647.37 ± 5.3	–
301.15 K	1645.39 ± 5.3	–
302.15 K	1643.41 ± 5.3	–
303.1 K	–	1.531 ± 0.018
303.15 K	1641.42 ± 5.3	–
304.15 K	1639.43 ± 5.3	–
305.15 K	1637.43 ± 5.3	–
306.15 K	1635.43 ± 5.2	–
307.15 K	1633.42 ± 5.2	–
308.06 K	–	2.152 ± 0.021
308.15 K	1631.4 ± 5.2	–
309.15 K	1629.38 ± 5.2	–
310.15 K	1627.35 ± 5.2	–
311.15 K	1625.32 ± 5.2	–
312.15 K	1623.28 ± 5.2	–
313.02 K	–	2.979 ± 0.026
313.15 K	1621.23 ± 5.1	–
314.15 K	1619.17 ± 5.1	–
315.15 K	1617.12 ± 5.1	–
316.15 K	1615.05 ± 5.1	–
317.15 K	1612.98 ± 5.1	–
317.98 K	–	4.071 ± 0.032
318.15 K	1610.9 ± 5.1	–
319.15 K	1608.81 ± 5.1	–
320.15 K	1606.72 ± 5.1	–
321.15 K	1604.62 ± 5	–
322.15 K	1602.52 ± 5	–
322.99 K	–	5.496 ± 0.041
323.15 K	1600.4 ± 5	–
324.15 K	1598.29 ± 5	–
325.15 K	1596.16 ± 5	–
326.15 K	1594.03 ± 5	–
327.15 K	1591.88 ± 5	–
327.95 K	–	7.315 ± 0.047
328.15 K	1589.74 ± 4.9	–
329.15 K	1587.59 ± 4.9	–
330.15 K	1585.42 ± 4.9	–
331.15 K	1583.26 ± 4.9	–
332.15 K	1581.08 ± 4.9	–
333.15 K	1578.9 ± 4.9	–
334.15 K	1576.7 ± 4.9	–
335.15 K	1574.51 ± 4.9	–
336.15 K	1572.3 ± 4.8	–
337.15 K	1570.09 ± 4.8	–
338.15 K	1567.87 ± 4.8	–
339.15 K	1565.64 ± 4.8	–
340.15 K	1563.41 ± 4.8	–
341.15 K	1561.17 ± 4.8	–
342.15 K	1558.91 ± 4.8	–
343.15 K	1556.65 ± 4.7	–
344.15 K	1554.39 ± 4.7	–
345.15 K	1552.11 ± 4.7	–
346.14 K	1549.83 ± 4.7	–
347.15 K	1547.45 ± 4.7	–
348.15 K	1545.15 ± 4.7	–
349.15 K	1542.85 ± 4.7	–
350.15 K	1540.53 ± 4.6	–
351.15 K	1538.2 ± 4.6	–
352.15 K	1535.87 ± 4.6	–
353.15 K	1533.52 ± 4.6	–
